This is an account of results in PubChem BioAssay AID2060335 (Molecular Pharmacology Branch, DTP, NCI, 2025).

In this experiment the test system is DU-145 multicell spheroids with HUVEC/MSC, viability. The experiment in a line: Anticancer human tumor DU-145 cell line growth inhibition [IpAb].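 On all read-outs here: spheroids exposed to agents for seven days before measurement.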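 On viability, T/C: percent of DMSO vehicle control viability so 100% = untreated level.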 Conditions: for viability, T/C: stronger effect = lower value. The source says: Combinatorial screen of targeted agents with ipatasertib and abemaciclib in multi-cell type tumor spheroids
A high-throughput screen of multi-cell type tumor spheroids was designed to identify active combinations of targeted small molecules and ipatasertib or abemaciclib. Complex spheroids include a stromal component modeled by human endothelial cells (HUVEC) and fibroblasts modeled by human mesenchymal stem cells (MSCs). The concentration ranges selected for each drug and investigational agent were based upon clinically achievable concentrations if the clinical Cmax of the agent was known.
Compounds. The drugs and investigational agents: ipatasertib (NSC767898), abemaciclib(NSC768073), selumetinib (NSC741078), trametinib (758246), adavosertib (NSC754352), everolimus (NSC733504), sapanisertib (NSC764658), vemurafenib (NSC761431), venetoclax (NSC766270), copanlisib (NSC809693), apelisib (NSC765974), palbociblib (NSC758247), vemurafenib (NSC761431), dabrafenib (NSC764134), ravoxertinib (NSC781343), BMS-387032 (NSC767048), sotorasib (NSC818433), talazoparib (NSC767125) and afursertib (NSC778305), were obtained from the National Cancer Institute (NCI) Developmental Therapeutics Program Chemical Repository. The FDA-approved anticancer drug set is available from the NCI Developmental Therapeutics Program. […] The stock solutions were prepared in dimethyl sulfoxide (DMSO, Sigma-Aldrich, St. Louis, MO, cat. D2650) at 800-fold the tested concentration and stored at -70 degrees C prior to their use. All drugs and investigational agents were tested over a range starting from a high concentration at or near the clinical Cmax and decreasing in half-log increments. If the clinical Cmax for an agent had not been determined, the highest concentration tested was 10 microM.
NCI60 Cell Culture. NCI60 cell lines were obtained from the NCI Developmental Therapeutics Program Tumor Repository. For each lot of cells, the Repository performed Applied Biosystems AmpFLSTR Identifiler testing with PCR amplification to confirm consistency with the published Identifier STR profile for each cell line. Cells were kept in continuous culture for no more than 20 passages. The optimal seeding densities for each of the cell lines at each time point assessed were determined prior to performing the concentration response studies. Briefly, the NCI60 human tumor lines were grown as monolayers in RPMI 1640 medium supplemented with 10% FBS and 2 mmol/L L-glutamine.
An additional 9 lines were from the NCI60 cell line panel including MDA-MB-231 breast carcinoma, MDA-MB-468 breast carcinoma, MCF7 breast carcinoma, Hs578T breast carcinoma, MALME-3M melanoma, SK-MEL-2 melanoma, SK-OV-3 ovarian carcinoma, DU-145 prostate carcinoma, PC-3 prostate carcinoma, all cell lines along with major genetic alterations are listed on Table 2. Pooled donor human umbilical vein endothelial cells (HUVEC, Lonza, cat. CC-2519) and human mesenchymal stem cells (hMSC, Lonza, cat. PT-2501) were purchased from Lonza (Walkersville, MD).
PDMR cell lines were grown in complete medium (DC medium): Dulbecco's modified Eagle's medium (DMEM)/F12 supplemented with 5% fetal bovine serum (FBS), 2 mM L-glutamine, 100 U/mL penicillin and 100 µg/ml streptomycin, 0.4 µg/ml hydrocortisone, 10 ng/ml epidermal growth factor (EGF) recombinant human protein, 24 µg/mL adenine, and 0.1 mg/mL primocin. During culture from frozen stock vials, PDMR cells were cultured in the same medium containing 10 µM Y-27632 (see Table 3). The PDCs were cultured in complete DMEM/F12 media without 10 microM Y-27632 dihydrochloride for at least two passages prior to the screen. The pooled donor HUVEC and hMSC were cultured in endothelial cell growth medium 2 (PromoCell, Heidelberg, Germany, cat. C-22011) and mesenchymal stem cell growth medium 2 (PromoCell, cat. C-28009), respectively. For all experiments, HUVEC and hMSC were used at passages </=5.
[…]

The mark [1] stands for this setting: curve of first compound, second compound 0.01 µM.
[2] abbreviates: curve of first compound, second compound 0.0316 µM.
The mark [3] stands for this setting: curve of first compound, second compound 0.1 µM.
The mark [4] stands for this setting: curve of first compound, second compound 0.316 µM.
The mark [5] stands for this setting: curve of first compound, second compound 1 µM.
Setting [6] is: second compound 0.01 µM, first compound 0.0316 µM.
The mark [7] stands for this setting: second compound 0.01 µM, first compound 0.1 µM.
Setting [8] is: second compound 0.01 µM, first compound 0.316 µM.
Setting [9] is: second compound 0.01 µM, first compound 1 µM.
Setting [10] is: second compound 0.01 µM, first compound 3.16 µM.
Where [11] appears, read: second compound 0.01 µM, first compound 10 µM.
Where [12] appears, read: second compound 0.0316 µM, first compound 0.0316 µM.
[13] abbreviates: second compound 0.0316 µM, first compound 0.1 µM.
Where [14] appears, read: second compound 0.0316 µM, first compound 0.316 µM.
[15] abbreviates: second compound 0.0316 µM, first compound 1 µM.
[16] abbreviates: second compound 0.0316 µM, first compound 3.16 µM.
Setting [17] is: second compound 0.0316 µM, first compound 10 µM.
Where [18] appears, read: second compound 0.1 µM, first compound 0.0316 µM.
Setting [19] is: second compound 0.1 µM, first compound 0.1 µM.
Setting [20] is: second compound 0.1 µM, first compound 0.316 µM.
The mark [21] stands for this setting: second compound 0.1 µM, first compound 1 µM.
Where [22] appears, read: second compound 0.1 µM, first compound 3.16 µM.
The mark [23] stands for this setting: second compound 0.1 µM, first compound 10 µM.
Where [24] appears, read: second compound 0.316 µM, first compound 0.0316 µM.
[25] abbreviates: second compound 0.316 µM, first compound 0.1 µM.
The mark [26] stands for this setting: second compound 0.316 µM, first compound 0.316 µM.
Setting [27] is: second compound 0.316 µM, first compound 1 µM.
The mark [28] stands for this setting: second compound 0.316 µM, first compound 3.16 µM.
Where [29] appears, read: second compound 0.316 µM, first compound 10 µM.
Where [30] appears, read: second compound 1 µM, first compound 0.0316 µM.
[31] abbreviates: second compound 1 µM, first compound 0.1 µM.
[32] abbreviates: second compound 1 µM, first compound 0.316 µM.
The mark [33] stands for this setting: second compound 1 µM, first compound 1 µM.
Setting [34] is: second compound 1 µM, first compound 3.16 µM.
[35] abbreviates: second compound 1 µM, first compound 10 µM.

Structures are written as SMILES. Several values for one entry are separate records, joined by “and”; a condition that tells them apart may be missing. Identical values can stand only once. Where only a bound is given, the exact number is not on record here.

Turning to `C=CCn1c(=O)c2cnc(Nc3ccc(N4CCN(C)CC4)cc3)nc2n1-c1cccc(C(C)(C)O)n1` + CCN1CCN(Cc2ccc(Nc3ncc(F)c(-c4cc(F)c5nc(C)n(C(C)C)c5c4)n3)nc2)CC1, the IC50 reads like this: under setting [1], 140 nM; under setting [2], 88.3 nM; under setting [3], 64.3 nM; under setting [4], 55.9 nM; under setting [5], 96.6 nM. Also, the viability, T/C runs as follows: under setting [6], 85.5%; under setting [7], 61.3%; under setting [8], 21.9%; under setting [9], 17%; under setting [10], 10.1%; under setting [11], 9.83%. Besides, the viability, T/C reads like this: under setting [12], 75.3%; under setting [13], 47.6%; under setting [14], 21.7%; under setting [15], 16.9%; under setting [16], 10.7%; under setting [17], 8.6%. The viability, T/C reads like this: under setting [18], 69.7%; under setting [19], 37%; under setting [20], 21.9%; under setting [21], 16.1%; under setting [22], 9.64%; under setting [23], 9.46%. Further, the viability, T/C reads like this: under setting [24], 58.7%; under setting [25], 40.9%; under setting [26], 25.2%; under setting [27], 14.9%; under setting [28], 9.9%; under setting [29], 10.9%. Further, the viability, T/C under setting [30] is 57.3%; the viability, T/C under setting [31] was 50.5%; the viability, T/C under setting [32] was 27.1%; the viability, T/C under setting [33] is 14.2%; the viability, T/C under setting [34] is 7.82%; the viability, T/C under setting [35] was 8.53%.
Turning to `Cn1nccc1Nc1nccc(-c2ccn(C(CO)c3ccc(Cl)c(F)c3)c(=O)c2)n1` (stereo unspecified) + CCN1CCN(Cc2ccc(Nc3ncc(F)c(-c4cc(F)c5nc(C)n(C(C)C)c5c4)n3)nc2)CC1, the IC50 is greater than 10000 nM under setting [1]; 7220 nM under setting [2]; greater than 10000 nM under setting [3]; greater than 10000 nM under setting [4]; greater than 10000 nM under setting [5]. For the same molecule, the viability, T/C under setting [6] is 86.9%; the viability, T/C under setting [7] was 68.4%; the viability, T/C under setting [8] was 71%; the viability, T/C under setting [9] was 85.6%; the viability, T/C under setting [10] was 103%; the viability, T/C under setting [11] was 82.1%. For the same molecule, the viability, T/C by setting is: under setting [12], 85.4%; under setting [13], 64.7%; under setting [14], 69.8%; under setting [15], 82.5%; under setting [16], 105%; under setting [17], 37.7%. The viability, T/C by setting is: under setting [18], 65.2%; under setting [19], 60.4%; under setting [20], 63.5%; under setting [21], 75.1%; under setting [22], 92.6%; under setting [23], 53.6%. Further, the viability, T/C by setting is: under setting [24], 67.1%; under setting [25], 60.7%; under setting [26], 61.9%; under setting [27], 77%; under setting [28], 79.1%; under setting [29], 54.8%. In addition, the viability, T/C is, setting by setting: under setting [30], 66.4%; under setting [31], 68.2%; under setting [32], 61.5%; under setting [33], 73.5%; under setting [34], 90.2%; under setting [35], 64.3%.
In the case of `CC1(C)CCC(CN2CCN(c3ccc(C(=O)NS(=O)(=O)c4ccc(NCC5CCOCC5)c([N+](=O)[O-])c4)c(Oc4cnc5[nH]ccc5c4)c3)CC2)=C(c2ccc(Cl)cc2)C1`, the viability, T/C is 104% (compound 0.0316 µM); 103% and 109% (compound 0.1 µM); 104% and 107% (compound 0.316 µM); 96.4% and 99.4% (compound 1 µM); 69.2% and 76% (compound 3.16 µM); 10.1% and 10.8% (compound 10 µM). Also, the IC50 (curve of compound) was 4530 nM and 4990 nM.
In the case of `CC(C)n1nc(-c2ccc3oc(N)nc3c2)c2c(N)ncnc21`, the viability, T/C by setting is: (compound 0.000316 µM) 78.7% and 94.3%; (compound 0.001 µM) 57.3% and 66.2%; (compound 0.00316 µM) 41.3% and 40.2%; (compound 0.01 µM) 22.9% and 21.7%; (compound 0.0316 µM) 14.4% and 12%; (compound 0.1 µM) 10.8% and 10.1%. For the same molecule, the IC50 (curve of compound) was 1.66 nM and 2.03 nM.
`Cn1nccc1Nc1nccc(-c2ccn(C(CO)c3ccc(Cl)c(F)c3)c(=O)c2)n1` (stereo unspecified): the viability, T/C is, setting by setting: (compound 0.0316 µM) 87.3% and 90%; (compound 0.1 µM) 72.5% and 77.1%; (compound 0.316 µM) 79% and 73.5%; (compound 1 µM) 93.7% and 87.4%; (compound 3.16 µM) 112% and 116%; (compound 10 µM) 65% and 81.9%. In addition, under “curve of compound”, the IC50 was greater than 10000 nM.
